Consider 20 molecules from PubChem BioAssay AID330 (DTP/NCI, 2004).

Values joined by “and” are separate entries in the source; they are usually repeats but may differ in a detail not shown here. Equal entries are not always repeated. Toxic doses and inconclusive results are not listed.

The test system of the experiment is P388 leukemia ip, CD2F1 mice, survival T/C. Put plainly: NCI In Vivo Anticancer Drug Screen. Data for tumor model P388 Leukemia (intraperitoneal) in CD2F1 (CDF1) mice. The following applies: endpoint: median survival time, higher = longer survival. In outline:
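Mice carrying the transplanted tumor received test compound or vehicle. Survival was recorded in each group, and the value is the treated-group measurement divided by that of the vehicle-treated control group.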

[1] abbreviates: dose: 60.0 mg/kg/injection, schedule: Q01DX005 (ip), vehicle: saline.
[2] abbreviates: dose: 120.0 mg/kg/injection, schedule: Q01DX005 (ip), vehicle: saline.
Where [3] appears, read: dose: 50.0 mg/kg/injection, schedule: Q01DX005 (ip), vehicle: Klucel (hydroxypropylcellulose) (HPC).
Where [4] appears, read: dose: 100.0 mg/kg/injection, schedule: Q01DX005 (ip), vehicle: Klucel (hydroxypropylcellulose) (HPC).
[5] abbreviates: dose: 100.0 mg/kg/injection, schedule: Q04DX003 (ip), vehicle: saline with Tween-80.
Where [6] appears, read: dose: 400.0 mg/kg/injection, schedule: Q04DX003 (ip), vehicle: saline with Tween-80.
Setting [7] is: dose: 25.0 mg/kg/injection, schedule: Q01DX009 (ip), vehicle: saline with Tween-80.
Setting [8] is: dose: 50.0 mg/kg/injection, schedule: Q01DX009 (ip), vehicle: saline with Tween-80.

Take `CC1=CC2OC34COC3CC(OC(=O)C(F)(F)F)C4(C)C2(C)CC1` (centres undefined): the T/C was 120 % of control (dose: 24.0 mg/kg/injection, schedule: Q04DX003 (ip), vehicle: saline with Tween-80); 113 % of control (dose: 37.5 mg/kg/injection, schedule: Q04DX003 (ip), vehicle: saline with Tween-80); 112 % of control (dose: 55.0 mg/kg/injection, schedule: Q04DX003 (ip), vehicle: saline with Tween-80).

As for `CCN(CC)CCN(C)C(C)C(=O)Nc1ccccc1Cl` (centres undefined), the T/C is 105 % of control under setting [1] and 100 % of control under setting [2].

Consider `COc1cc(C2c3cc4c(cc3C(O)C(CO)C2CO)OCO4)cc(OC)c1OC` (centres undefined), for which the T/C (dose: 11.0 mg/kg/injection, schedule: Q01DX009 (ip), vehicle: saline with Tween-80) was 118 % of control; the T/C (dose: 25.0 mg/kg/injection, schedule: Q04DX003 (ip), vehicle: saline with Tween-80) is 115 % of control; the T/C (dose: 37.5 mg/kg/injection, schedule: Q01DX009 (ip), vehicle: saline with Tween-80) is 150 % of control; the T/C under setting [3] was 103 % of control; the T/C under setting [4] is 97 % of control; the T/C (dose: 100.0 mg/kg/injection, schedule: Q01DX009 (ip), vehicle: saline sonified) is 165 % of control. Besides, the T/C runs as follows: under setting [5], 155 % of control; (dose: 200.0 mg/kg/injection, schedule: Q01DX005 (ip), vehicle: Klucel (hydroxypropylcellulose) (HPC)) 94 % of control; (dose: 200.0 mg/kg/injection, schedule: Q01DX009 (ip), vehicle: saline sonified) 195 % of control; (dose: 264.0 mg/kg/injection, schedule: Q04DX003 (ip), vehicle: saline with Tween-80) 154 % of control; (dose: 400.0 mg/kg/injection, schedule: Q01DX009 (ip), vehicle: saline sonified) 95 % of control; under setting [6], 163 % of control.

`CC[N+]12CC=C(CO)C1C(O)CC2` (centres undefined): the T/C runs as follows: under setting [1], 97 % of control; under setting [2], 95 % of control; (dose: 240.0 mg/kg/injection, schedule: Q01DX005 (ip), vehicle: saline) 106 % of control.

On to `COC(=O)C(CSC(c1ccccc1)(c1ccccc1)c1ccccc1)NC(=O)CCNC(=O)OCc1ccccc1` (centres undefined), for which the T/C is 103 % of control (dose: 6.25 mg/kg/injection, schedule: Q01DX009 (ip), vehicle: other); 97 % of control (dose: 12.5 mg/kg/injection, schedule: Q01DX009 (ip), vehicle: other); 94 % of control (dose: 25.0 mg/kg/injection, schedule: Q01DX009 (ip), vehicle: other); 88 % of control (dose: 50.0 mg/kg/injection, schedule: Q01DX009 (ip), vehicle: other).

With `O=C(NC1CC1)C(Cl)Cl`, the T/C is 103 % of control under setting [3] and 99 % of control under setting [4].

Turning to `COc1cc(NCCCC2CCCCN2)c2ncccc2c1OC` (centres undefined), the T/C (dose: 6.25 mg/kg/injection, schedule: Q01DX005 (ip), vehicle: saline) was 103 % of control and the T/C (dose: 12.5 mg/kg/injection, schedule: Q01DX005 (ip), vehicle: saline) is 101 % of control.

Consider `COC(=O)c1cc(C(=O)OC)c2c3[nH]cnc3ncn2c1=O`, for which the T/C was 98 % of control under setting [5]; 100 % of control (dose: 200.0 mg/kg/injection, schedule: Q04DX003 (ip), vehicle: saline with Tween-80); 97 % of control under setting [6].

In the case of `CC(NC(=O)c1ccc(C(C[N+](=O)[O-])SCCC(=O)O)cc1)C(=O)O` (centres undefined), the T/C runs as follows: (dose: 60.0 mg/kg/injection, schedule: Q01DX005 (ip), vehicle: saline + Tween-80 + alcohol) 98 % of control; (dose: 120.0 mg/kg/injection, schedule: Q01DX005 (ip), vehicle: saline + Tween-80 + alcohol) 99 % of control; (dose: 240.0 mg/kg/injection, schedule: Q01DX005 (ip), vehicle: saline + Tween-80 + alcohol) 107 % of control.

Turning to `C1=CC(=CN2CCc3ccccc3C2)C=C1`, the T/C is 101 % of control (dose: 60.0 mg/kg/injection, schedule: Q01DX005 (ip), vehicle: Klucel (hydroxypropylcellulose) (HPC)); 102 % of control (dose: 120.0 mg/kg/injection, schedule: Q01DX005 (ip), vehicle: Klucel (hydroxypropylcellulose) (HPC)); 103 % of control (dose: 240.0 mg/kg/injection, schedule: Q01DX005 (ip), vehicle: Klucel (hydroxypropylcellulose) (HPC)).

Take `CCCSc1nn2cc(NC(=O)OC)nc2s1`: the T/C runs as follows: (dose: 50.0 mg/kg/injection, schedule: Q01DX005 (ip), vehicle: saline with Tween-80) 97 % of control; (dose: 100.0 mg/kg/injection, schedule: Q01DX005 (ip), vehicle: saline with Tween-80) 100 % of control; (dose: 200.0 mg/kg/injection, schedule: Q01DX005 (ip), vehicle: saline with Tween-80) 103 % of control.

Turning to `CN(C)c1c(Cl)c(=O)oc2c1ccc1nc(-c3ccccc3)ncc12`, the T/C runs as follows: (dose: 60.0 mg/kg/injection, schedule: Q01DX005 (ip), vehicle: saline with Tween-80) 97 % of control; (dose: 120.0 mg/kg/injection, schedule: Q01DX005 (ip), vehicle: saline with Tween-80) 88 % of control.

`COC(=O)C1=C(C)NC2(C)SC1C(C)C2C(=O)OC` (centres undefined): the T/C runs as follows: (dose: 12.5 mg/kg/injection, schedule: Q01DX009 (ip), vehicle: saline with Tween-80) 92 % of control and 93 % of control; under setting [7], 101 % of control and 93 % of control; under setting [8], 90 % of control and 97 % of control; (dose: 100.0 mg/kg/injection, schedule: Q01DX009 (ip), vehicle: saline with Tween-80) 87 % of control and 90 % of control.

Turning to `O=C(c1ccccc1)C1C(c2ccccc2)SC(c2ccccc2)CC1(O)Cl` (centres undefined), the T/C runs as follows: (dose: 100.0 mg/kg/injection, schedule: Q04DX002 (ip), vehicle: Klucel (hydroxypropylcellulose) (HPC)) 87 % of control; (dose: 200.0 mg/kg/injection, schedule: Q04DX002 (ip), vehicle: Klucel (hydroxypropylcellulose) (HPC)) 87 % of control; (dose: 400.0 mg/kg/injection, schedule: Q04DX002 (ip), vehicle: Klucel (hydroxypropylcellulose) (HPC)) 87 % of control.

Turning to `COC1OCC(NC(=O)CNC(=O)CCCCCCCCCCCCC(C)C)C(O)C1O` (centres undefined), the T/C was 100 % of control (dose: 6.25 mg/kg/injection, schedule: Q01DX009 (ip), vehicle: distilled water + Tween-80); 93 % of control (dose: 12.5 mg/kg/injection, schedule: Q01DX009 (ip), vehicle: distilled water + Tween-80); 99 % of control (dose: 25.0 mg/kg/injection, schedule: Q01DX009 (ip), vehicle: distilled water + Tween-80); 104 % of control (dose: 50.0 mg/kg/injection, schedule: Q01DX009 (ip), vehicle: distilled water + Tween-80); 104 % of control (dose: 100.0 mg/kg/injection, schedule: Q01DX009 (ip), vehicle: distilled water + Tween-80); 108 % of control (dose: 200.0 mg/kg/injection, schedule: Q01DX009 (ip), vehicle: distilled water + Tween-80).

In the case of `Cc1nc(N)[nH]c(=O)c1-c1ccc(Cl)cc1`, the T/C by setting is: (dose: 100.0 mg/kg/injection, schedule: Q04DX003 (ip), vehicle: Klucel (hydroxypropylcellulose) (HPC)) 106 % of control; (dose: 200.0 mg/kg/injection, schedule: Q04DX003 (ip), vehicle: Klucel (hydroxypropylcellulose) (HPC)) 105 % of control; (dose: 400.0 mg/kg/injection, schedule: Q04DX003 (ip), vehicle: Klucel (hydroxypropylcellulose) (HPC)) 99 % of control.

Consider `Cc1c([N+](=O)[O-])/c(=N/O)c2c(=O)c([N+](=O)[O-])coc2n1O`, for which the T/C is 108 % of control (dose: 50.0 mg/kg/injection, schedule: Q01DX009 (ip), vehicle: Klucel (hydroxypropylcellulose) (HPC)); 99 % of control (dose: 100.0 mg/kg/injection, schedule: Q01DX009 (ip), vehicle: Klucel (hydroxypropylcellulose) (HPC)); 90 % of control (dose: 200.0 mg/kg/injection, schedule: Q01DX009 (ip), vehicle: Klucel (hydroxypropylcellulose) (HPC)).

For `CN1CC[C@H]([C@@H](O)c2ccccc2)C1=O`, the T/C runs as follows: (dose: 50.0 mg/kg/injection, schedule: Q01DX005 (ip), vehicle: saline) 102 % of control; (dose: 100.0 mg/kg/injection, schedule: Q01DX005 (ip), vehicle: saline) 102 % of control; (dose: 200.0 mg/kg/injection, schedule: Q01DX005 (ip), vehicle: saline) 107 % of control.

On to `CCN(CC)C1=Nc2ccccc2N(c2ccccc2)C(N2CCCCC2)=C1`, for which the T/C runs as follows: (dose: 12.5 mg/kg/injection, schedule: Q04DX002 (ip), vehicle: Klucel (hydroxypropylcellulose) (HPC)) 99 % of control; (dose: 25.0 mg/kg/injection, schedule: Q04DX002 (ip), vehicle: Klucel (hydroxypropylcellulose) (HPC)) 99 % of control; (dose: 50.0 mg/kg/injection, schedule: Q04DX002 (ip), vehicle: Klucel (hydroxypropylcellulose) (HPC)) 101 % of control.

For `Cc1cc(C(C)(CC(C)C)c2ccc(O)c(C)c2)ccc1O`, the T/C under setting [7] was 116 % of control and the T/C under setting [8] was 98 % of control.
